Results published in publication PMC11435058, “Synthesis of New Thiazole-Privileged Chalcones as Tubulin Polymerization Inhibitors with Potential Anticancer Activities” (Pharmaceuticals, 2024).

How the values were obtained:
Experiment in all cases: NCI-60 anticancer screen (SRB; single dose and five doses)
[1] = system: 786-0; conditions: Homo sapiens
[2] = system: NCI-H23; conditions: Homo sapiens
[3] = system: MALME-3M; conditions: Homo sapiens
[4] = system: M14; conditions: Homo sapiens
[5] = system: MDA-MB-468; assay type: cell-based, human
Outline: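 NCI panel of about 60 human tumor cell lines treated with compound at a single concentration (10μM) for 48 h. Growth measured by SRB protein staining and expressed as percent growth of treated versus untreated control cells.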

[6] = system: U251; conditions: Homo sapiens
[7] = system: NCI-H226; conditions: Homo sapiens
[8] = system: MCF7; conditions: Homo sapiens
[9] = system: RPMI-8226; conditions: Homo sapiens
[10] = system: UACC-257; conditions: Homo sapiens
[11] = system: BT-549; conditions: Homo sapiens
[12] = system: HCT-15; conditions: Homo sapiens
[13] = system: MOLT-4; conditions: Homo sapiens
[14] = system: OVCAR-8; conditions: Homo sapiens
[15] = system: SK-MEL-2; conditions: Homo sapiens
[16] = system: UACC-62; conditions: Homo sapiens
[17] = system: T-47D; conditions: Homo sapiens, T47D
[18] = system: LOX IMVI; conditions: Homo sapiens
[19] = system: HCC-2998
[20] = system: TK-10; conditions: Homo sapiens
[21] = system: NCI-H322M; conditions: Homo sapiens
[22] = system: SF-295; conditions: Homo sapiens
[23] = system: COLO 205; conditions: Homo sapiens
[24] = system: HOP-62; conditions: Homo sapiens
[25] = system: OVCAR-4; conditions: Homo sapiens
[26] = 48 h, read-out: Growth Percentage

With `COc1cc(/C=C/C(=O)c2sc(=S)[nH]c2C)cc(OC)c1OC` [2p, (E)-1-(4-Methyl-2-Thioxo-2,3-Dihydrothiazol-5-yl)-3-(3,4,5-Trimethoxyphenyl)Prop-2-En-1-One] the GI50 ([1]; 786-0) was 4.57 µM, the IC50 ([1]; 786-0) was 6.61 µM and the activity at 10 µM ([1]; 786-0, 48 h, read-out: Growth Percentage) was 21.1%. The CC50 ([1]; 786-0, read-out: LC50) was 97.7 µM, the IC (TGI) ([1]; 786-0, read-out: TGI) was 20.9 µM and the GI50 ([2]; NCI-H23) was 2.95 µM. For the same molecule, the IC50 ([2]; NCI-H23) was 5.25 µM, the activity at 10 µM ([2]; NCI-H23, 48 h, read-out: Growth Percentage) was 7.27% and the CC50 ([2]; NCI-H23, read-out: LC50) was 44.7 µM. It also gave an IC (TGI) ([2]; NCI-H23, read-out: TGI) of 10.5 µM, a GI50 [3] of 5.75 µM and an IC50 [3] of 17.8 µM. It also gave a CC50 ([3]; read-out: LC50) of 55 µM, an IC (TGI) ([3]; read-out: TGI) of 20.4 µM and a GI50 ([4]; M14) of 3.24 µM. The IC50 ([4]; M14) was 5.13 µM, the activity at 10 µM ([4]; M14, 48 h, read-out: Growth Percentage) was 15.4% and the IC (TGI) ([4]; M14, read-out: TGI) was 13.2 µM. It also gave an activity at 10 µM ([5]; Homo sapiens, 48 h, MDA-MB-468, dose of 10 μM, read-out: Growth Percentage) of 3.79%, an IC50 ([5]; Homo sapiens, MDA-MB-468, MDA-MB-468, Breast Cancer, five dose) of 5.75 µM and a GI50 ([5]; Homo sapiens, MDA-MB-468, Breast Cancer, five dose) of 1.55 µM. The CC50 ([5]; Homo sapiens, MDA-MB-468, Breast Cancer, five dose, read-out: LC50 (the source's name)) was 17.8 µM, the TGI ([5]; MDA-MB-468, Breast Cancer, five dose) was 4.47 µM and the GI50 ([6]; U-251) was 3.02 µM. The IC50 ([6]; U-251) was 4.17 µM, the activity at 10 µM ([6]; U-251, 48 h, read-out: Growth Percentage) was 15% and the CC50 ([6]; U-251, read-out: LC50) was 43.6 µM. It also gave an IC (TGI) ([6]; U-251, read-out: TGI) of 12 µM, a GI50 ([7]; NCI-H226) of 3.63 µM and an IC50 ([7]; NCI-H226) of 32.4 µM. The activity at 10 µM ([7]; NCI-H226, 48 h, read-out: Growth Percentage) was 16.4%, the CC50 ([7]; NCI-H226, read-out: LC50) was greater than 100 µM and the IC (TGI) ([7]; NCI-H226, read-out: TGI) was 36.3 µM. The GI50 ([8]; MCF7) was 3.02 µM, the IC50 ([8]; MCF7) was 4.27 µM and the activity at 10 µM ([8]; MCF7, 48 h, read-out: Growth Percentage) was 9.35%. The CC50 ([8]; MCF7, read-out: LC50) was 45.7 µM, the IC (TGI) ([8]; MCF7, read-out: TGI) was 10.7 µM and the GI50 ([9]; RPMI-8226) was 2.19 µM. It also gave an IC50 ([9]; RPMI-8226) of 4.47 µM, an activity at 10 µM ([9]; RPMI-8226, 48 h, read-out: Growth Percentage) of 5.31% and a CC50 ([9]; RPMI-8226, read-out: LC50) greater than 100 µM. It also gave an IC (TGI) ([9]; RPMI-8226, read-out: TGI) of 9.12 µM, a GI50 ([10]; UACC-257) of 5.13 µM and an IC50 ([10]; UACC-257) of 18.6 µM. It also gave an activity at 10 µM ([10]; UACC-257, 48 h, read-out: Growth Percentage) of 42.1%, a CC50 ([10]; UACC-257, read-out: LC50) of 75.9 µM and an IC (TGI) ([10]; UACC-257, read-out: TGI) of 21.9 µM. The GI50 ([11]; BT-549) was 2.95 µM, the IC50 ([11]; BT-549) was 11.8 µM and the activity at 10 µM ([11]; BT-549, 48 h, read-out: Growth Percentage) was -11.8%. For the same molecule, the IC (TGI) ([11]; BT-549, read-out: TGI) was 10.7 µM, the GI50 ([12]; HCT-15) was 3.24 µM and the IC50 ([12]; HCT-15) was 4.17 µM. It also gave an activity at 10 µM ([12]; HCT-15, 48 h, read-out: Growth Percentage) of -3.26%, a CC50 ([12]; HCT-15, read-out: LC50) of 74.1 µM and an IC (TGI) ([12]; HCT-15, read-out: TGI) of 15.5 µM. It also gave a GI50 ([13]; MOLT-4) of 2.88 µM, an IC50 ([13]; MOLT-4) of 4.17 µM and an activity at 10 µM ([13]; MOLT-4, 48 h, read-out: Growth Percentage) of 9.11%. For the same molecule, the CC50 ([13]; MOLT-4, read-out: LC50) was greater than 100 µM, the IC (TGI) ([13]; MOLT-4, read-out: TGI) was 22.9 µM and the GI50 ([14]; OVCAR-8) was 2.14 µM. It also gave an IC50 ([14]; OVCAR-8) of 3.55 µM, an activity at 10 µM ([14]; OVCAR-8, 48 h, read-out: Growth Percentage) of 4.32% and a CC50 ([14]; OVCAR-8, read-out: LC50) of 45.7 µM. For the same molecule, the IC (TGI) ([14]; OVCAR-8, read-out: TGI) was 5.5 µM, the GI50 ([15]; SK-MEL-2) was 3.09 µM and the IC50 ([15]; SK-MEL-2) was 11 µM. For the same molecule, the activity at 10 µM ([15]; SK-MEL-2, 48 h, read-out: Growth Percentage) was 34.9%, the CC50 ([15]; SK-MEL-2, read-out: LC50) was 42.7 µM and the IC (TGI) ([15]; SK-MEL-2, read-out: TGI) was 11.5 µM. For the same molecule, the GI50 ([16]; UACC-62) was 2.82 µM, the IC50 ([16]; UACC-62) was 5.37 µM and the activity at 10 µM ([16]; UACC-62, 48 h, read-out: Growth Percentage) was -3.11%. The IC (TGI) ([16]; UACC-62, read-out: TGI) was 12.3 µM, the GI50 [17] was 2.19 µM and the IC50 [17] was 7.24 µM. It also gave an activity at 10 µM [17, 26] of -1.59%, a CC50 ([17]; read-out: LC50) greater than 100 µM and an IC (TGI) ([17]; read-out: TGI) of 13.2 µM. It also gave a GI50 [18] of 3.24 µM, an IC50 [18] of 4.47 µM and an activity at 10 µM [18, 26] of 17.1%. The CC50 ([18]; read-out: LC50) was 38.9 µM, the IC (TGI) ([18]; read-out: TGI) was 12 µM and the GI50 ([19]; Homo sapiens, HCC 2998) was 5.13 µM. For the same molecule, the IC50 ([19]; Homo sapiens, HCC 2998) was 11.8 µM, the activity at 10 µM ([19]; Homo sapiens, HCC 2998, 48 h, read-out: Growth Percentage) was 19% and the CC50 ([19]; Homo sapiens, HCC 2998, read-out: LC50) was 44.7 µM. For the same molecule, the TGI ([19]; five-dose, Colon Cancer HCC-2998) was 17.38 µM, the GI50 ([20]; TK-10) was 5.01 µM and the IC50 ([20]; TK-10) was 16.2 µM. For the same molecule, the activity at 10 µM ([20]; TK-10, 48 h, read-out: Growth Percentage) was 53%, the CC50 ([20]; TK-10, read-out: LC50) was 47.9 µM and the IC (TGI) ([20]; TK-10, read-out: TGI) was 17.8 µM. It also gave a GI50 [21] of 4.57 µM, an IC50 [21] of 14.1 µM and a CC50 ([21]; read-out: LC50) of 51.3 µM. For the same molecule, the IC (TGI) ([21]; read-out: TGI) was 18.6 µM, the GI50 ([22]; SF-295) was 5.5 µM and the IC50 ([22]; SF-295) was 14.5 µM. For the same molecule, the activity at 10 µM ([22]; SF-295, 48 h, read-out: Growth Percentage) was 42.3%, the CC50 ([22]; SF-295, read-out: LC50) was 66.1 µM and the IC (TGI) ([22]; SF-295, read-out: TGI) was 21.4 µM. The GI50 ([23]; COLO 205) was 16.2 µM, the IC50 ([23]; COLO 205) was 28.8 µM and the activity at 10 µM ([23]; COLO 205, 48 h, read-out: Growth Percentage) was 81.7%. It also gave a CC50 ([23]; COLO 205, read-out: LC50) of 70.8 µM, an IC (TGI) ([23]; COLO 205, read-out: TGI) of 33.9 µM and a GI50 ([24]; HOP-62) of 3.16 µM. It also gave an IC50 ([24]; HOP-62) of 5.37 µM, an activity at 10 µM ([24]; HOP-62, 48 h, read-out: Growth Percentage) of 4.61% and a CC50 ([24]; HOP-62, read-out: LC50) greater than 100 µM. The IC (TGI) ([24]; HOP-62, read-out: TGI) was 16.2 µM, the GI50 ([25]; OVCAR-4) was 2.82 µM and the IC50 ([25]; OVCAR-4) was 6.61 µM. For the same molecule, the activity at 10 µM ([25]; OVCAR-4, 48 h, read-out: Growth Percentage) was 15.6%, the CC50 ([25]; OVCAR-4, read-out: LC50) was 51.3 µM and the IC (TGI) ([25]; OVCAR-4, read-out: TGI) was 12.6 µM.
